Assays:
Format in all cases: in vivo, Guinea pig
[1] = system: bronchospasm caused by histamine; assay: Bronchospasmolytic activity, modified Konzett-Rossler test, histamine-induced bronchospasm; conditions: dose inhibiting effect of asthmogenic agent to 50% of initial value, male white Guinea pigs, anesthesized, V. jugularis
Protocol: (§1) To test the bronchospasmolytic activity of the compounds of the invention the following experiments were carried through:
(§2) TEST ACCORDING TO KONZETT-ROSSLER
(§3) To test the bronchospasmolytic activity the respiratory volume was measured by the method of Konzett-Rossler, according to which the air volume is measured which is taken up by the lung when the maximum inflation pressure is maintained constant and a constant volume is offered by high pressure respiration. Capacity variations in the respiratory tract result in an increase or decrease of the amount of air taken up by the lung under the given constant inflation pressure.
(§4) As test animals male white Guinea pigs having a weight of from 400 to 500 grams were used which had been anesthesized with 10 mg/kg i.p. of Evipan and 200 mg/kg i.p. of urethane. The substance to be tested was administered by means of a catheter in the V. jugularis. The positive pressure respiration depended on the normal respiratory volume of the test animal and could be adapted suitably and readily to the individual test animal. In the tests carried through the pressure indicated by Rosenthal and Dervinis of 80 mm H2 O was used. During the recovery phase after a bronchospastic reaction the flexible hose leading to the water manometer was clamped off for a short period of time in order to open deflating lung segments. The respiration frequency amounted to 64-72 per minute. The respiratory volume was measured according to the slightly modified Konzett-Rossler method wherein the piston recorder was replaced by a back-pressure tube according to Fleisch (type 0000). The occuring pressure difference was recorded by a difference pressure recorder of the type Statham PM 97 CT. To record the measured values a multi-channel recorder of Messrs. Hellige was used. The substance to be tested was used in the form of a standard solution in absolute alcohol. Directly prior to the start of the test it was diluted to the required final concentration with phosphate buffer (pH 7.4). The asthmogenic solution was prepared with double distilled water.
(§5) As asthmogenic agents histamine dihydrochloride, acetyl choline chloride and sertonine creatinine sulfate were used. To reduce the error resulting from individual differences in the bronchospasm intensity with a uniform dose of asthmogenic agent, the dosage unit was chosen such that an about 70 to 80% decrease of the absorption capacity of the lung was obtained. The experimental data were subjected to the regression analysis according to the probit transformation and the equation of the straight lines of regression y=a+b log x was calculated. In this manner the average inhibition dose (ID50 =the dose which inhibits the effect of the asthmogenic agent to 50% of the initial value) was found. Additionally, the results obtained by carrying out a simple variance analysis in the Duncan Test were compared with the control.

bronchial muscles = assay: Bronchospasmolytic effect and its duration, modified Konzett-Rossler test; conditions: male white Guinea pigs, anesthesized; V. jugularis; asthmogenic agent not specified
Protocol: as §1, §2, §3, §4, §5

[2] = system: spasm initiated by serotonin; assay: Bronchospasmolytic activity, modified Konzett-Rossler test, serotonin-induced bronchospasm; conditions: dose inhibiting effect of asthmogenic agent to 50% of initial value, male white Guinea pigs, anesthesized, V. jugularis
Protocol: as §1, §2, §3
as §4, with “The substance to be tested was used in the form of a standard solution in absolute alcohol. Directly prior to the start of the test it was diluted to the required final concentration with phosphate buffer (pH 7.4). The asthmogenic solution was prepared with double distilled water.” left out
As asthmogenic agents histamine dihydrochloride, acetyl choline chloride and sertonine creatinine sulfate were used. […] The experimental data were subjected to the regression analysis according to the probit transformation and the equation of the straight lines of regression y=a+b log x was calculated. […]

[3] = system: spasm caused by acetylcholine; assay: Bronchospasmolytic activity, modified Konzett-Rossler test, acetylcholine-induced bronchospasm; conditions: dose inhibiting effect of asthmogenic agent to 50% of initial value, male white Guinea pigs, anesthesized, V. jugularis
Protocol: as §1, §2, §3, §4
as §5, with “Additionally, the results obtained by carrying out a simple variance analysis in the Duncan Test were compared with the control.” left out

Structure (SMILES)	ID50 values histamine [1]	duration of effect (bronchial muscles)	ID50 values serotonin [2]	ID50 values acetylcholine [3]
CCCCC[C@H](O)/C=C/[C@H]1CCC(=O)[C@@H]1CCC(C)CCCC(=O)OCCCC(C)(C)C (stereo partly shown) [Example 4]	7 ng/animal	20 to 25 min	–	–
CCCCC[C@H](O)/C=C/[C@H]1CCC(=O)[C@@H]1CCC(C)CCCC(=O)OCCCC (stereo partly shown) [Example 3, 5-Methyl-10,11-dihydroprostaglandin-A1 n-butyl ester]	0.63 ng/animal	15 to 20 min	1.2 ng/animal	6.9 ng/animal
CCCCC[C@H](O)/C=C/[C@H]1CCC(=O)[C@@H]1CCC(C)CCCC(=O)OCCCc1ccccc1 (stereo partly shown) [Example 9, 5-Methyl-10,11-dihydroprostaglandin-A1-3-phenylpropyl ester]	1 ng/animal	25 min	–	–
CCCCC[C@H](O)/C=C/[C@H]1CCC(=O)[C@@H]1CCC(C)CCCC(=O)O (stereo partly shown) [comp. II, 5-methyl-10,11-dihydroprostaglandin-A1]	5 ng/animal	–	9 ng/animal	10 ng/animal
CCCCCCCCCCOC(=O)CCCC(C)CC[C@H]1C(=O)CC[C@@H]1/C=C/[C@@H](O)CCCCC (stereo partly shown) [Example 2, 5-Methyl-10,11-dihydroprostaglandin-A1 n-decyl ester]	4.2 ng/animal	30 to 45 min	–	–
CCCCCCOC(=O)CCCC(C)CC[C@H]1C(=O)CC[C@@H]1/C=C/[C@@H](O)CCCCC (stereo partly shown) [Example 1, 5-Methyl-10,11-dihydroproxtaglandin-A1 n-hexyl ester]	1 ng/animal	30 min	–	3 ng/animal
CCCCC[C@H](O)/C=C/[C@H]1CCC(=O)[C@@H]1CCC(C)CCCC(=O)OC1CCCCC1 (stereo partly shown) [Example 6, 5-Methyl-10,11-dihydroprostaglandin-A1 cyclohexyl ester]	7.5 ng/animal	60 min	–	–
CCCCC[C@H](O)/C=C/[C@H]1CCC(=O)[C@@H]1CCC(C)CCCC(=O)OCCOCC (stereo partly shown) [Example 7, 5-Methyl-10,11-dihydroprostaglandin-A1-2-ethoxyethyl ester]	0.4 ng/animal	10 to 20 min	0.86 ng/animal	0.88 ng/animal

Source: patent publication US4198429A, “Esters of 5-methyl-10,11-dihydroprostaglandin-A1” (Hoechst Aktiengesellschaft, priority 1976, dated 1980)
